Like-named read-outs stand apart in the source and are kept apart here.
Assays:
CDK4/Cyclin D1 = CDK4/Cyclin D1 (Homo sapiens, UniProt P11802); assay: NanoBRET live-cell target engagement, NanoLuc-CDK4/Cyclin D1 in HEK-293; assay type: binding; settings: CDK4/D1, read-out: Inhibition at 10µM (%)
CDK8/Cyclin C = CDK8/Cyclin C (Homo sapiens, UniProt P49336); assay: NanoBRET live-cell target engagement, NanoLuc-CDK8/Cyclin C in HEK-293; assay type: binding; settings: CDK8/C, read-out: Inhibition at 10µM (%)
CDK5/CDK5R1 = CDK5/CDK5R1 (Homo sapiens, UniProt Q00535); assay: NanoBRET live-cell target engagement, CDK5-NanoLuc/CDK5R1 in HEK-293; assay type: binding; settings: CDK5/CDK5R1, read-out: Inhibition at 10µM (%)
CDK14/Cyclin Y = CDK14/Cyclin Y (Homo sapiens, UniProt O94921); assay: NanoBRET live-cell target engagement, CDK14-NanoLuc/Cyclin Y in HEK-293; assay type: binding; settings: CDK14/Y, read-out: Inhibition at 10µM (%)
CDK16/Cyclin Y = CDK16/Cyclin Y (Homo sapiens, UniProt Q00536); assay: NanoBRET live-cell target engagement, CDK16-NanoLuc/Cyclin Y in HEK-293; assay type: binding; settings: CDK16/Y, read-out: Inhibition at 10µM (%)
CDK11A/Cyclin L2 = biological target: T1, CDK11A/Cyclin L2 (Homo sapiens, UniProt Q9UQ88); assay: NanoBRET live-cell target engagement, CDK11A-NanoLuc/Cyclin L2 in HEK-293; assay type: binding; settings: CDK11a/L2, read-out: Inhibition at 10µM (%)
T1 sequence (Q9UQ88 1-783): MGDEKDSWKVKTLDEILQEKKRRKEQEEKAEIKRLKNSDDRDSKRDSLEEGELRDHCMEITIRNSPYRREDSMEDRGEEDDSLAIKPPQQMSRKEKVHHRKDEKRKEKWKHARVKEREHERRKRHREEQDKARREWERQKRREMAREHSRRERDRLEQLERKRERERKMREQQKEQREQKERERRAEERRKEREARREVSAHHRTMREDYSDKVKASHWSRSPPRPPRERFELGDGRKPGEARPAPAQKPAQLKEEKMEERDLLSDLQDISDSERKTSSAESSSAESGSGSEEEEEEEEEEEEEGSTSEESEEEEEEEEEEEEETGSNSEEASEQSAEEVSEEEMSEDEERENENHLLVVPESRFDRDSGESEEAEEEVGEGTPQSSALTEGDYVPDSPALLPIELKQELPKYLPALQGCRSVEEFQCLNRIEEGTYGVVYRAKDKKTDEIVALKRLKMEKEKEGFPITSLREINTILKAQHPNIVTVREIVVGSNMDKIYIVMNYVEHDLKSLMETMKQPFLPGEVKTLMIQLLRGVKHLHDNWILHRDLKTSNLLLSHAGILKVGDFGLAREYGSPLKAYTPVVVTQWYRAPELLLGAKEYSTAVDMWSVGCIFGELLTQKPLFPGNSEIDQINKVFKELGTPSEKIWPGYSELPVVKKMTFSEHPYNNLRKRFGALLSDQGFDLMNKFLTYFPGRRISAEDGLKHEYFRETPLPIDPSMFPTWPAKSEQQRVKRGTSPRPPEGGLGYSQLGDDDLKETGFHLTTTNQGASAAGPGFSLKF

CDK12/Cyclin K = CDK12/Cyclin K (Homo sapiens, UniProt Q9NYV4); assay: NanoBRET live-cell target engagement, CDK12-NanoLuc/Cyclin K in HEK-293; assay type: binding; settings: CDK12/K, read-out: Inhibition at 10µM (%)
CDK20/Cyclin H = CDK20/Cyclin H (Homo sapiens, UniProt Q8IZL9); assay: NanoBRET live-cell target engagement, NanoLuc-CDK20/Cyclin H in HEK-293; assay type: binding; settings: CDK20/H, read-out: Inhibition at 10µM (%)
CDK17/Cyclin Y = CDK17/Cyclin Y (Homo sapiens, UniProt Q00537); assay: NanoBRET live-cell target engagement, CDK17-NanoLuc/Cyclin Y in HEK-293; assay type: binding
CDK18/Cyclin Y = CDK18/Cyclin Y (Homo sapiens, UniProt Q07002); assay: NanoBRET live-cell target engagement, CDK18-NanoLuc/Cyclin Y in HEK-293; assay type: binding; settings: CDK18/Y, read-out: Inhibition at 10µM (%)
CDK13/Cyclin K = CDK13/Cyclin K (Homo sapiens, UniProt Q14004); assay: NanoBRET live-cell target engagement, CDK13-NanoLuc/Cyclin K in HEK-293; assay type: binding; settings: CDK13/K, read-out: Inhibition at 10µM (%)
CDK15/Cyclin Y = CDK15/Cyclin Y (Homo sapiens, UniProt Q96Q40); assay: NanoBRET live-cell target engagement, NanoLuc-CDK15/Cyclin Y in HEK-293; assay type: binding; settings: CDK15/Y, read-out: Inhibition at 10µM (%)
all 21 human CDKs = assay: Live-cell selectivity profile across all 21 CDK/cyclin complexes in HEK-293; assay type: binding; settings: live cells
CDK11B/Cyclin L2 = CDK11B/Cyclin L2 (Homo sapiens, UniProt P21127); assay: NanoBRET live-cell target engagement, CDK11B-NanoLuc/Cyclin L2 in HEK-293; assay type: binding; settings: CDK11b/L2, read-out: Inhibition at 10µM (%)
CDK10/Cyclin L2 = CDK10/Cyclin L2 (Homo sapiens, UniProt Q15131); assay: NanoBRET live-cell target engagement, CDK10-NanoLuc/Cyclin L2 in HEK-293; settings: read-out: Inhibition at 10µM (%), CDK10/L2
CDK19/Cyclin C = CDK19/Cyclin C (Homo sapiens, UniProt Q9BWU1); assay: NanoBRET live-cell target engagement, NanoLuc-CDK19/Cyclin C in HEK-293; settings: read-out: Inhibition at 10µM (%), CDK19/C
CDK19/Cyclin C, sequence (Q9BWU1 whole entry): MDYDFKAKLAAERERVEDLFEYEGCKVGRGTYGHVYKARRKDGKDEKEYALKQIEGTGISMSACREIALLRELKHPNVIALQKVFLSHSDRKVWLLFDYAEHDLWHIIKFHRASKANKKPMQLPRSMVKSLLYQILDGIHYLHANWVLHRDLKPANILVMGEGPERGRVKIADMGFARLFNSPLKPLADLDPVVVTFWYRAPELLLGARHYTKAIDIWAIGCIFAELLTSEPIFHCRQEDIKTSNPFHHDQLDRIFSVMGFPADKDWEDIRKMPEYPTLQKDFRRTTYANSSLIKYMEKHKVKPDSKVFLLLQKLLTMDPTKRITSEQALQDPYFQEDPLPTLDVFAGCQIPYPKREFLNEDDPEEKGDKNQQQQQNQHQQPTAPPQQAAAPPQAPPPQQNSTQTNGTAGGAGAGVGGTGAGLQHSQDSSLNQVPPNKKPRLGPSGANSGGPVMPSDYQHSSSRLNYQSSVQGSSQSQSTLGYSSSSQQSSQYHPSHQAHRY
CDK19/Cyclin C, sequence (P24863 whole entry partner): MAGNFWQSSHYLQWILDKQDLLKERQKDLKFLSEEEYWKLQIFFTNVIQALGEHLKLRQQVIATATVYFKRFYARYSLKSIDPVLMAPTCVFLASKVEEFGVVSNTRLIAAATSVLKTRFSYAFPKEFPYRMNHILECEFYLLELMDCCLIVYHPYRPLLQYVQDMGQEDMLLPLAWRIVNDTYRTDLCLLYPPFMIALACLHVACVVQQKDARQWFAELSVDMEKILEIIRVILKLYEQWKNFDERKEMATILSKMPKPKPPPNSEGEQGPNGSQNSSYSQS

CDK15/Cyclin Y, sequence (Q96Q40 whole entry): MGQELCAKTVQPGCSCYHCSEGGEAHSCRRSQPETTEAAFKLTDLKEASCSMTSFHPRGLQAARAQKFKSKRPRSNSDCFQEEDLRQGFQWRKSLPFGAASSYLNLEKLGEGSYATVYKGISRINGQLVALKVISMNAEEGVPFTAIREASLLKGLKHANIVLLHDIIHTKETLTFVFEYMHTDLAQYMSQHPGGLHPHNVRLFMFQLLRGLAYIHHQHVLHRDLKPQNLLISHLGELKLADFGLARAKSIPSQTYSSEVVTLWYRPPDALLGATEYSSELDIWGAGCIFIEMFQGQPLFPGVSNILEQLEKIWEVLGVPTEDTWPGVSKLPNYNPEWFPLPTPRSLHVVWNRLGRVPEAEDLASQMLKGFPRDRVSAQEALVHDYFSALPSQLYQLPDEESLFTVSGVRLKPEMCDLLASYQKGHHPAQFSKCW
CDK15/Cyclin Y, sequence (Q8ND76 whole entry partner): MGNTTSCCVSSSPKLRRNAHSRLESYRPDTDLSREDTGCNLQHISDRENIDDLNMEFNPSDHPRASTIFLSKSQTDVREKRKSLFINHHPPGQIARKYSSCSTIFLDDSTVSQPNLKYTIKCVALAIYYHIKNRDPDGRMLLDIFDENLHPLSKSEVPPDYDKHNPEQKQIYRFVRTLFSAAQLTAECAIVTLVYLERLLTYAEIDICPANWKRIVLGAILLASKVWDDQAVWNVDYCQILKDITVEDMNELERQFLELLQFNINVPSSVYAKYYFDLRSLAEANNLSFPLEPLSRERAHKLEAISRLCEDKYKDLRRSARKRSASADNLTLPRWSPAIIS
CDK8/Cyclin C, sequence (P49336 whole entry): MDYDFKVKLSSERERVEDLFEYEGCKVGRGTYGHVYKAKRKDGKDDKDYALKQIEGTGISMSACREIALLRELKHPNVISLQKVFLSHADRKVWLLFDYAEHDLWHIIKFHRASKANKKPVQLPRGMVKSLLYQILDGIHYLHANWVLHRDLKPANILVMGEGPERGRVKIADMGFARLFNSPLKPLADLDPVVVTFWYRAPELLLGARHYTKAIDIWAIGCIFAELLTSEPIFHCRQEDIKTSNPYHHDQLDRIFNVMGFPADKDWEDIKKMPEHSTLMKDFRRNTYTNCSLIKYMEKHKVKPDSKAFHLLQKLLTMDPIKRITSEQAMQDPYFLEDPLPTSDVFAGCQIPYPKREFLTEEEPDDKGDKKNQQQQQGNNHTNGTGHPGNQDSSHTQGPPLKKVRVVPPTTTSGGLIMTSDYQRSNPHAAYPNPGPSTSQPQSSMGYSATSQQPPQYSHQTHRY
CDK8/Cyclin C, sequence (P24863 whole entry partner): as the sequence (P24863 whole entry partner) above
CDK5/CDK5R1, sequence (Q00535 whole entry): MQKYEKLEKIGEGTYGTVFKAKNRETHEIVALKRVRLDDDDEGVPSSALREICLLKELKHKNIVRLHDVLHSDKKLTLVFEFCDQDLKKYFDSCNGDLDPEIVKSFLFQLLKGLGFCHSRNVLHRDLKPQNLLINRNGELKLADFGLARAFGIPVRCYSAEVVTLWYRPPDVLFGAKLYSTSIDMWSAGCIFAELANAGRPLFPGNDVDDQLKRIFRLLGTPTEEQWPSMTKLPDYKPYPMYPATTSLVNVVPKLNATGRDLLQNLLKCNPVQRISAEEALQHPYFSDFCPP
CDK5/CDK5R1, sequence (Q15078 whole entry partner): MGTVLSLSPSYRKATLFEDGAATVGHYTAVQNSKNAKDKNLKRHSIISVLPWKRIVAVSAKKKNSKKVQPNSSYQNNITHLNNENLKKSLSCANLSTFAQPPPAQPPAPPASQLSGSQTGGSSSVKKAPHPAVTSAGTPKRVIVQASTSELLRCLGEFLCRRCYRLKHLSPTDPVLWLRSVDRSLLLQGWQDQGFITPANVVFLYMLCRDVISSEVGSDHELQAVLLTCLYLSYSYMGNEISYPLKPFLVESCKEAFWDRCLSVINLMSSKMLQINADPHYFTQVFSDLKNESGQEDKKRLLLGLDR
CDK11B/Cyclin L2, sequence (P21127 1-782 isoform P21127-2): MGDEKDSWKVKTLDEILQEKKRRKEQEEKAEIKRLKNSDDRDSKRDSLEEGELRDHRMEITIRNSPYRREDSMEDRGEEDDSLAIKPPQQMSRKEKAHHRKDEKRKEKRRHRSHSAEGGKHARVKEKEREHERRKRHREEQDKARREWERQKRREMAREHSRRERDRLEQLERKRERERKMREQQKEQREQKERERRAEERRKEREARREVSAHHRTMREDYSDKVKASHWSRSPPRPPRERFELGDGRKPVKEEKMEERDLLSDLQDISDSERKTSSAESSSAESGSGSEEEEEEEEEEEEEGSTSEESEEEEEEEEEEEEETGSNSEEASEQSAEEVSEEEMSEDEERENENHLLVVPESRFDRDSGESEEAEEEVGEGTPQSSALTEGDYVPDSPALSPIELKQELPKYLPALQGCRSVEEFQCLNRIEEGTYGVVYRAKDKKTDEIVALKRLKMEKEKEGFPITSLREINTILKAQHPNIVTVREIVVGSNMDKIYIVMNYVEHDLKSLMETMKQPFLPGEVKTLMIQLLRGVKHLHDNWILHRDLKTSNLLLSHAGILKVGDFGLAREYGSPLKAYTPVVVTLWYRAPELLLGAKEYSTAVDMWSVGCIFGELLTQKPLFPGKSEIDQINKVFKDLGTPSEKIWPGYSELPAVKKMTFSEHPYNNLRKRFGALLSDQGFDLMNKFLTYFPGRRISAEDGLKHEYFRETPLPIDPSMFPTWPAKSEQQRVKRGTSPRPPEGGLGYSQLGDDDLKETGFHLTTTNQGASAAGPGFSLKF
CDK4/Cyclin D1, sequence (P11802 whole entry): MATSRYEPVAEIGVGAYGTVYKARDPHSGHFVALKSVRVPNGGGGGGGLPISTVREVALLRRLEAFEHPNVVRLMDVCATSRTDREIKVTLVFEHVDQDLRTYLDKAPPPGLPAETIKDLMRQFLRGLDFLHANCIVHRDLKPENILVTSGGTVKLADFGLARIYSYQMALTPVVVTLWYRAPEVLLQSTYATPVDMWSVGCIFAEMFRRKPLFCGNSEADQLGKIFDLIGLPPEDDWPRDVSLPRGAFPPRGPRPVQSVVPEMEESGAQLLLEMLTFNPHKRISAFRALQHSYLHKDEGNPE
CDK4/Cyclin D1, sequence (P24385 whole entry partner): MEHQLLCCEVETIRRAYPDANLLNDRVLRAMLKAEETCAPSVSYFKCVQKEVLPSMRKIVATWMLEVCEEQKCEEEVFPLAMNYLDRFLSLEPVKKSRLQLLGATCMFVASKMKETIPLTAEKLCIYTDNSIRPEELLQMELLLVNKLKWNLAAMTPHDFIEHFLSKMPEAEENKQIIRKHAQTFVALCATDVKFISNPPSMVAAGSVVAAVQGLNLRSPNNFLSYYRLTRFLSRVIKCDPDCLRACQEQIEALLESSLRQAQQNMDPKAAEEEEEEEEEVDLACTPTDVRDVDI
CDK18/Cyclin Y, sequence (Q07002 whole entry): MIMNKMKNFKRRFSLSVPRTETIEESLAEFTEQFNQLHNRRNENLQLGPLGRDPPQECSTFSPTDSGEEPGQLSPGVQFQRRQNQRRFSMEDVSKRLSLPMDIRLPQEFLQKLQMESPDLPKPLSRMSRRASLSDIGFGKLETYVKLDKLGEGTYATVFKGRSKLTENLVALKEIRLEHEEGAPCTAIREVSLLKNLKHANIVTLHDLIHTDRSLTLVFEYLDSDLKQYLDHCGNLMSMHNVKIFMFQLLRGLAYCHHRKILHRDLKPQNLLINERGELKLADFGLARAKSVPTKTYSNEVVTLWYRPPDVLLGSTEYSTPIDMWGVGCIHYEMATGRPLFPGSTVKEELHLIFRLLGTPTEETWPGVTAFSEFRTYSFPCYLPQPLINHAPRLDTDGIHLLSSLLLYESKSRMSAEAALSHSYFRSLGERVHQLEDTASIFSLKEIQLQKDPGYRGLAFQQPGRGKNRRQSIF
CDK18/Cyclin Y, sequence (Q8ND76 whole entry partner): as the sequence (Q8ND76 whole entry partner) above
CDK10/Cyclin L2, sequence (Q15131 whole entry): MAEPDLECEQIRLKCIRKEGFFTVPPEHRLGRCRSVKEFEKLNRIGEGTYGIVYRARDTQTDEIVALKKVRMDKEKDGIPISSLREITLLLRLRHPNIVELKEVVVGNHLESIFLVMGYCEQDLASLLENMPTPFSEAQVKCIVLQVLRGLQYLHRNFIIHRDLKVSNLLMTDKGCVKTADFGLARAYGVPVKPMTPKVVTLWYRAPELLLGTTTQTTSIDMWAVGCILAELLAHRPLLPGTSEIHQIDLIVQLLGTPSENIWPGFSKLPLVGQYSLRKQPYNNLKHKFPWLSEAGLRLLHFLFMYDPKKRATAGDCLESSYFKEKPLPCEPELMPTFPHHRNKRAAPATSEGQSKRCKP

CC(C)(C)c1nc(-c2cccc(NS(=O)(=O)c3c(F)cccc3F)c2F)c(-c2ccnc(N)n2)s1 [Dabrafenib]
inhibition at 10 µM (CDK4/Cyclin D1; average): 21.4% | inhibition at 10 µM (CDK4/Cyclin D1; experiment 1): 5.4% | inhibition at 10 µM (CDK4/Cyclin D1; experiment 2): 37.4% | inhibition at 10 µM (CDK8/Cyclin C; average): -1.9% | inhibition at 10 µM (CDK8/Cyclin C; experiment 1): -1.4% | inhibition at 10 µM (CDK8/Cyclin C; experiment 2): -2.4% | inhibition at 10 µM (CDK5/CDK5R1; average): -2.2% | inhibition at 10 µM (CDK5/CDK5R1; experiment 1): -4.1% | inhibition at 10 µM (CDK5/CDK5R1; experiment 2): -0.278% | inhibition at 10 µM (CDK14/Cyclin Y; average): 0.0911% | inhibition at 10 µM (CDK14/Cyclin Y; experiment 1): 0.459% | inhibition at 10 µM (CDK14/Cyclin Y; experiment 2): -0.277% | inhibition at 10 µM (CDK16/Cyclin Y; experiment 1): 1.4% | inhibition at 10 µM (CDK16/Cyclin Y; experiment 2): -3.4% | inhibition at 10 µM (CDK11A/Cyclin L2; average): 9.5% | inhibition at 10 µM (CDK11A/Cyclin L2; experiment 1): 2.1% | inhibition at 10 µM (CDK11A/Cyclin L2; experiment 2): 16.8% | inhibition at 10 µM (CDK12/Cyclin K; average): 20.2% | inhibition at 10 µM (CDK12/Cyclin K; experiment 1): 5.9% | inhibition at 10 µM (CDK12/Cyclin K; experiment 2): 34.6% | inhibition at 10 µM (CDK20/Cyclin H; experiment 1): 13.5% | inhibition at 10 µM (CDK20/Cyclin H; experiment 2): 6.7% | inhibition at 10 µM (CDK17/Cyclin Y; CDK17/Y, average, read-out: Inhibition at 10µM (%)): 10.2% | inhibition at 10 µM (CDK17/Cyclin Y; CDK17/Y, experiment 2, read-out: Inhibition at 10µM (%)): 4% | inhibition at 10 µM (CDK17/Cyclin Y; read-out: Inhibition at 10µM (%), CDK17/Y, experiment 1): 16.4% | inhibition at 10 µM (CDK18/Cyclin Y; average): 8.1% | inhibition at 10 µM (CDK18/Cyclin Y; experiment 1): 1.7% | inhibition at 10 µM (CDK18/Cyclin Y; experiment 2): 14.5% | inhibition at 10 µM (CDK13/Cyclin K; average): 10.9% | inhibition at 10 µM (CDK13/Cyclin K; experiment 1): 7.1% | inhibition at 10 µM (CDK13/Cyclin K; experiment 2): 14.7% | inhibition at 10 µM (CDK15/Cyclin Y; average): 14.6% | inhibition at 10 µM (CDK15/Cyclin Y; experiment 1): 4.4% | inhibition at 10 µM (CDK15/Cyclin Y; experiment 2): 24.7% | engagement of CDKs at concentrations up to 10μM (all 21 human CDKs): only weakly engaged | inhibition at 10 µM (CDK11B/Cyclin L2; average): 4.4% | inhibition at 10 µM (CDK11B/Cyclin L2; experiment 1): 2.7% | inhibition at 10 µM (CDK11B/Cyclin L2; experiment 2): 6% | inhibition at 10 µM (CDK10/Cyclin L2; average): 12.7% | inhibition at 10 µM (CDK10/Cyclin L2; experiment 1): 3% | inhibition at 10 µM (CDK10/Cyclin L2; experiment 2): 22.4% | inhibition at 10 µM (CDK19/Cyclin C; average): -6.6% | inhibition at 10 µM (CDK19/Cyclin C; experiment 1): 0.8% | inhibition at 10 µM (CDK19/Cyclin C; experiment 2): -14%
